≈ marks a conversion by molar mass, not a printed value.
Each molecule was assayed on Mtb H37Rv-WT (assay: MIC by resazurin microtiter assay (REMA) against Mtb). Conditions: Mycobacterium tuberculosis, 144 h, REMA, 37° C., 6 days, read-out: MIC (μM) H37Rv-WT.
Format: cell-based
Molecule CC(C)[C@H]1CO[C@]23CCN(CC4CCCCC4)C[C@H]2CCC(=O)N13 [(3S,7aR,11aR)-9-(cyclohexylmethyl)-3-isopropyl-2,3,6,7,7a,8,10,11-octahydrooxazolo[2,3-j][1,6]naphthyridin-5-one] has an MIC of under 1 µM. For CC(C)[C@H]1CO[C@]23CCN(S(=O)(=O)c4ccc(C(F)(F)F)cc4)C[C@H]2CCC(=O)N13 [(3S,7aR,11aR)-3-isopropyl-9-[4-(trifluoromethyl)phenyl]sulfonyl-2,3,6,7,7a,8,10,11-octahydrooxazolo[2,3-j][1,6]naphthyridin-5-one], the MIC was 1 to 10 µM (≈ 0.446 to 4.46 µg/mL). CC(C)[C@H]1CO[C@]23CCN(C(=O)Cc4ccccc4)C[C@H]2CCC(=O)N13 [(3S,7aR,11aR)-3-isopropyl-9-(2-phenylacetyl)-2,3,6,7,7a,8,10,11-octahydrooxazolo[2,3-j][1,6]naphthyridin-5-one] was tested, and the MIC was over 10 µM. With CC(C)[C@H]1CO[C@]23CCN(c4ccccc4)C[C@H]2CCC(=O)N13 [(3S,7aR,11aR)-3-isopropyl-9-phenyl-2,3,6,7,7a,8,10,11-octahydrooxazolo[2,3-j][1,6]naphthyridin-5-one] the MIC was 1 to 10 µM (≈ 0.314 to 3.14 µg/mL). With CC(C)[C@H]1CO[C@]23CCN(Cc4cccc5cccnc45)C[C@H]2CCC(=O)N13 [(3S,7aR,11aR)-3-isopropyl-9-(8-quinolylmethyl)-2,3,6,7,7a,8,10,11-octahydrooxazolo[2,3-j][1,6]naphthyridin-5-one] the MIC was 1 to 10 µM (≈ 0.38 to 3.8 µg/mL). CC(C)[C@H]1CO[C@]23CCN(Cc4cccc(Oc5ccccc5)c4)C[C@H]2CCC(=O)N13 [(3S,7aR,11aR)-3-isopropyl-9-[(3-phenoxyphenyl)methyl]-2,3,6,7,7a,8,10,11-octahydrooxazolo[2,3-j][1,6]naphthyridin-5-one] gave an MIC of under 1 µM. In the case of CC(C)[C@H]1CO[C@]23CCN(Cc4nccn4C)C[C@H]2CCC(=O)N13 [(3S,7aR,11aR)-3-isopropyl-9-[(1-methylimidazol-2-yl)methyl]-2,3,6,7,7a,8,10,11-octahydrooxazolo[2,3-j][1,6]naphthyridin-5-one], the MIC is reported as 1 to 10 µM (≈ 0.332 to 3.32 µg/mL). Cc1ccc(CN2CC[C@]34OC[C@H](C(C)C)N3C(=O)CC[C@@H]4C2)cc1 [(3S,7aR,11aR)-3-isopropyl-9-(p-tolylmethyl)-2,3,6,7,7a,8,10,11-octahydrooxazolo[2,3-j][1,6]naphthyridin-5-one] was tested, and the MIC was 1 to 10 µM (≈ 0.342 to 3.42 µg/mL). For C=CC[C@H]1C[C@@H]2CN(Cc3ccc(C(F)(F)F)cc3)CC[C@@]23OC[C@H](C(C)C)N3C1=O [(3S,6S,7aR,11aR)-6-allyl-3-isopropyl-9-[[4-(trifluoromethyl)phenyl]methyl]-2,3,6,7,7a,8,10,11-octahydrooxazolo[2,3-j][1,6]naphthyridin-5-one], the MIC was over 10 µM. CC(C)[C@H]1CO[C@]23CCN(CCCc4ccc(C(F)(F)F)cc4)C[C@H]2CCC(=O)N13 [(3S,7aR,11aR)-3-isopropyl-9-[3-[4-(trifluoromethyl)phenyl]propyl]-2,3,6,7,7a,8,10,11-octahydrooxazolo[2,3-j][1,6]naphthyridin-5-one] gave an MIC of under 1 µM. With CC(C)[C@H]1CO[C@]23CCN(Cc4ccc(C(F)(F)F)cc4)C[C@H]2CCC(=O)N13 [(3S,7aR,11aR)-3-isopropyl-9-[[4-(trifluoromethyl)phenyl]methyl]-2,3,6,7,7a,8,10,11-octahydrooxazolo[2,3-j][1,6]naphthyridin-5-one] the MIC was under 1 µM. In the case of CC(C)[C@H]1CO[C@]23CC[C@H](NCc4ccc(C(F)(F)F)cc4)C[C@H]2CCC(=O)N13, the MIC is reported as under 1 µM. For CC(C)[C@H]1CO[C@]23CCN(S(=O)(=O)CCc4ccc(C(F)(F)F)cc4)C[C@H]2CCC(=O)N13 [(3S,7aR,11aR)-3-isopropyl-9-[2-[4-(trifluoromethyl)phenyl]ethylsulfonyl]-2,3,6,7,7a,8,10,11-octahydrooxazolo[2,3-j][1,6]naphthyridin-5-one], the MIC was under 1 µM. With CC(C)[C@H]1CO[C@]23CCN(C4CCCCC4)C[C@H]2CCC(=O)N13 [(3S,7aR,11aR)-9-cyclohexyl-3-isopropyl-2,3,6,7,7a,8,10,11-octahydrooxazolo[2,3-j][1,6]naphthyridin-5-one] the MIC was over 10 µM. CC(C)[C@H]1CO[C@]23CC[C@@H](N(Cc4ccc(C(F)(F)F)cc4)Cc4ccc(C(F)(F)F)cc4)C[C@H]2CCC(=O)N13 showed an MIC of under 1 µM. Molecule CC(C)[C@H]1CO[C@]23CCN(Cc4ccccc4)C[C@H]2CC(=O)N13 [(1R,4S,8R)-10-benzyl-4-isopropyl-2-oxa-5,10-diazatricyclo[6.4.0.01,5]dodecan-6-one] has an MIC of 1 to 10 µM (≈ 0.314 to 3.14 µg/mL). C=CC[C@@H]1C[C@@H]2CN(Cc3ccc(C(F)(F)F)cc3)CC[C@@]23OC[C@H](C(C)C)N3C1=O [(3S,6R,7aR,11aR)-6-allyl-3-isopropyl-9-[[4-(trifluoromethyl)phenyl]methyl]-2,3,6,7,7a,8,10,11-octahydrooxazolo[2,3-j][1,6]naphthyridin-5-one] gave an MIC of 1 to 10 µM (≈ 0.437 to 4.37 µg/mL). For CC(C)[C@H]1CO[C@]23CCN(C(=O)OCCCc4ccc(C(F)(F)F)cc4)C[C@H]2CCC(=O)N13, the MIC was 1 to 10 µM (≈ 0.469 to 4.69 µg/mL). CC(C)[C@H]1CO[C@]23CCN(Cc4ccc(OC(F)(F)F)cc4)C[C@H]2CCC(=O)N13 was tested, and the MIC was under 1 µM. CC(C)[C@H]1CO[C@]23CCN(Cc4ccc(N5CCC(c6ccc(OC(F)(F)F)cc6)CC5)cc4)C[C@H]2CCC(=O)N13 [(3S,7aR,11aR)-3-isopropyl-9-[[4-[4-[4-(trifluoromethoxy)phenyl]-1-piperidyl]phenyl]methyl]-2,3,6,7,7a,8,10,11-octahydrooxazolo[2,3-j][1,6]naphthyridin-5-one] gave an MIC of under 1 µM. Work on CC(C)[C@H]1CO[C@]23CC(=O)N(Cc4ccc(C(F)(F)F)cc4)C[C@H]2CCC(=O)N13 [(3S,7aR,11aR)-3-isopropyl-9-[[4-(trifluoromethyl)phenyl]methyl]-3,6,7,7a,8,11-hexahydro-2H-oxazolo[2,3-j][1,6]naphthyridine-5,10-dione] yielded an MIC of over 10 µM. CC(C)[C@H]1CO[C@]23CCN(Cc4ccc(Cl)c(Cl)c4)C[C@H]2CCC(=O)N13 [(3S,7aR,11aR)-9-[(3,4-dichlorophenyl)methyl]-3-isopropyl-2,3,6,7,7a,8,10,11-octahydrooxazolo[2,3-j][1,6]naphthyridin-5-one] showed an MIC of under 1 µM. With CC(C)[C@H]1CO[C@]23CCN(CC(F)(F)c4ccc(C(F)(F)F)cc4)C[C@H]2CCC(=O)N13 [(3S,7aR,11aR)-9-[2,2-difluoro-2-[4-(trifluoromethyl)phenyl]ethyl]-3-isopropyl-2,3,6,7,7a,8,10,11-octahydrooxazolo[2,3-j][1,6]naphthyridin-5-one] the MIC was under 1 µM. With CC[C@@H]1C[C@@H]2CN(Cc3ccc(C(F)(F)F)cc3)CC[C@@]23OC[C@H](C(C)C)N3C1=O [(3S,6R,7aR,11aR)-6-ethyl-3-isopropyl-9-[[4-(trifluoromethyl)phenyl]methyl]-2,3,6,7,7a,8,10,11-octahydrooxazolo[2,3-j][1,6]naphthyridin-5-one] the MIC was under 1 µM. In the case of CC(C)[C@H]1CO[C@]23CCN(Cc4ccc(C(F)(F)F)cc4)C(=O)[C@H]2CCC(=O)N13 [(3S,7aS,11aR)-3-isopropyl-9-[[4-(trifluoromethyl)phenyl]methyl]-3,6,7,7a,10,11-hexahydro-2H-oxazolo[2,3-j][1,6]naphthyridine-5,8-dione], the MIC is reported as over 10 µM. C=C[C@H]1CO[C@]23CCN(Cc4ccc(C(F)(F)F)cc4)C[C@H]2CCC(=O)N13 showed an MIC of over 10 µM. Work on CC(C)[C@H]1CO[C@]23CCN(Cc4ccc(C(F)(F)F)cc4C(F)(F)F)C[C@H]2CCC(=O)N13 [(3S,7aR,11aR)-9-[[2,4-bis(trifluoromethyl)phenyl]methyl]-3-isopropyl-2,3,6,7,7a,8,10,11-octahydrooxazolo[2,3-j][1,6]naphthyridin-5-one] yielded an MIC of under 1 µM. CC(C)[C@H]1CO[C@]23CCN(CC4CCCO4)C[C@H]2CCC(=O)N13 (stereo partly drawn) [(3S,7aR,11aR)-3-isopropyl-9-(tetrahydrofuran-2-ylmethyl)-2,3,6,7,7a,8,10,11-octahydrooxazolo[2,3-j][1,6]naphthyridin-5-one] was tested, and the MIC was over 10 µM. CC(C)[C@H]1CO[C@]23CCN(Cc4ccc(Cl)cc4)C[C@H]2CCC(=O)N13 [(3S,7aR,11aR)-9-[(4-chlorophenyl)methyl]-3-isopropyl-2,3,6,7,7a,8,10,11-octahydrooxazolo[2,3-j][1,6]naphthyridin-5-one] gave an MIC of under 1 µM. Molecule CC(C)[C@H]1CO[C@]23CCN(C(=O)C(F)(F)c4ccc(C(F)(F)F)cc4)C[C@H]2CCC(=O)N13 [(3S,7aR,11aR)-9-[2,2-difluoro-2-[4-(trifluoromethyl)phenyl]acetyl]-3-isopropyl-2,3,6,7,7a,8,10,11-octahydrooxazolo[2,3-j][1,6]naphthyridin-5-one] has an MIC of over 10 µM. CC(C)[C@H]1CO[C@]23CCN(Cc4ccc(C(F)(F)F)cc4)C[C@H]2OCC(=O)N13 [(1R,4S,9R)-4-isopropyl-11-[[4-(trifluoromethyl)phenyl]methyl]-2,8-dioxa-5,11-diazatricyclo[7.4.0.01,5]tridecan-6-one] was tested, and the MIC was 1 to 10 µM (≈ 0.398 to 3.98 µg/mL).

Same assay, conditions: Mycobacterium tuberculosis, 144 h, REMA, read-out: MIC M. tuberculosis
With CC(C)[C@H]1CO[C@]23CC[C@H](N(Cc4ccc(C(F)(F)F)cc4)Cc4ccc(C(F)(F)F)cc4)C[C@H]2CCC(=O)N13 [Example 70, (3S,7aR,9S,11aR)-9-[bis[[4-(trifluoromethyl)phenyl]methyl]ami-no]-3-isopropyl-3,6,7,7a,8,9,10,11-octahydro-2H-oxazolo[2,3-j]quinolin-5-one] the MIC was under 1 µM.

Same assay, conditions: Mycobacterium tuberculosis, REMA, read-out: MIC M. tuberculosis
CC(C)[C@H]1CO[C@]23CCN(Cc4cc(C(F)(F)F)nc5ccccc45)C[C@H]2CCC(=O)N13 [Example 25, (3S,7aR,11aR)-3-isopropyl-9-[[2-(trifluoromethyl)-4-quinolyl]methyl]-2,3,6,7,7a,8,10,11-octahydrooxazolo[2,3-j][1,6]naphthyridin-5-one] gave an MIC of under 1 µM.

Each molecule was assayed against purified Ndh (Mtb recombinant MBP tagged Ndh-2 enzyme, MBP-Ndh) (Mycobacterium tuberculosis (strain ATCC 25618 / H37Rv), UniProt P95160) (assay: Biochemical evaluation of MBP-Ndh inhibition (NADH oxidation with menadione)). Conditions: NADH 500 μM, menadione 100 μM; read-out: IC50 (μM) purified Ndh.
Chain of purified Ndh (Mtb recombinant MBP tagged Ndh-2 enzyme, MBP-Ndh) (P95160 whole entry, looked up): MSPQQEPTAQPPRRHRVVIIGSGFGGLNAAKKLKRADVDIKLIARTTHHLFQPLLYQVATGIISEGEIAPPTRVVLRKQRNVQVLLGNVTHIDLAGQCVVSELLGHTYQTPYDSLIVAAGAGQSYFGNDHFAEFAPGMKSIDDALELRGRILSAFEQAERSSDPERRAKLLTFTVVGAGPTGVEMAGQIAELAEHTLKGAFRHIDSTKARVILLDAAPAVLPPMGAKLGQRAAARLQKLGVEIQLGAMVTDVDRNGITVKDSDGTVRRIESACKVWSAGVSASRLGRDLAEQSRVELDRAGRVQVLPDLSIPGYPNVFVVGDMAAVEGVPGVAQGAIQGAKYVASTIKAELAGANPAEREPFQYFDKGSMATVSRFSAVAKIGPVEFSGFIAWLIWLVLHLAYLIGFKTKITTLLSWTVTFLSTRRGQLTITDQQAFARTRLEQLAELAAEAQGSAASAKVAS
CC(C)[C@H]1CO[C@]23CCN(CC4CCCCC4)C[C@H]2CCC(=O)N13 [(3S,7aR,11aR)-9-(cyclohexylmethyl)-3-isopropyl-2,3,6,7,7a,8,10,11-octahydrooxazolo[2,3-j][1,6]naphthyridin-5-one] showed an IC50 of 0.1 to 1 µM. CC(C)[C@H]1CO[C@]23CCN(S(=O)(=O)c4ccc(C(F)(F)F)cc4)C[C@H]2CCC(=O)N13 [(3S,7aR,11aR)-3-isopropyl-9-[4-(trifluoromethyl)phenyl]sulfonyl-2,3,6,7,7a,8,10,11-octahydrooxazolo[2,3-j][1,6]naphthyridin-5-one] gave an IC50 of 0.1 to 1 µM. Work on CC(C)[C@H]1CO[C@]23CCN(C(=O)Cc4ccccc4)C[C@H]2CCC(=O)N13 [(3S,7aR,11aR)-3-isopropyl-9-(2-phenylacetyl)-2,3,6,7,7a,8,10,11-octahydrooxazolo[2,3-j][1,6]naphthyridin-5-one] yielded an IC50 of over 1 µM. CC(C)[C@H]1CO[C@]23CCN(c4ccccc4)C[C@H]2CCC(=O)N13 [(3S,7aR,11aR)-3-isopropyl-9-phenyl-2,3,6,7,7a,8,10,11-octahydrooxazolo[2,3-j][1,6]naphthyridin-5-one] gave an IC50 of 0.1 to 1 µM. Molecule CC(C)[C@H]1CO[C@]23CCN(Cc4cccc5cccnc45)C[C@H]2CCC(=O)N13 [(3S,7aR,11aR)-3-isopropyl-9-(8-quinolylmethyl)-2,3,6,7,7a,8,10,11-octahydrooxazolo[2,3-j][1,6]naphthyridin-5-one] has an IC50 of over 1 µM. CC(C)[C@H]1CS[C@]23CCN(Cc4ccccc4)C[C@H]2CCC(=O)N13 [(3S,7aR,11aR)-9-benzyl-3-isopropyl-2,3,6,7,7a,8,10,11-octahydrothiazolo[2,3-j][1,6]naphthyridin-5-one] showed an IC50 of over 1 µM.
